Reference: patent US9388160B2, “Quinazoline derivatives as kinases inhibitors and methods of use thereof” (TELIGENE LTD., priority 2011, dated 2016)

Assays:
EGFR = EGFR (Homo sapiens (Human), UniProt P00533); assay: In vitro EGFR kinase activity inhibition assay (Kinase-Glo Plus luminescence); assay type: biochemical; details: 10 μM ATP, poly(Glu,Tyr) substrate
Experimental: (§1) • 1. […] It measures kinase activity by quantitating the amount of ATP remaining in solution following a kinase reaction. The luminescent signal from the assay is correlated with the amount of ATP present and is inversely correlated with the amount of kinase activity. […] The luminescence data were analyzed using the computer software, Graphpad Prism. […] The values of % activity versus a series of compound concentrations were then plotted using non-linear regression analysis of Sigmoidal dose-response curve generated with the equation Y=B+(T−B)/1+10^((LogEC50−X)×Hill Slope), where Y=percent activity, B=minimum percent activity, T=maximum percent activity, X=logarithm of compound and Hill Slope=slope factor or Hill coefficient. The IC50 value was determined by the concentration causing a half-maximal percent activity.

EGFR(T790M/L858R) = EGFR(T790M/L858R) (Homo sapiens (Human), UniProt P00533, L858R/T790M); assay: In vitro EGFR(T790M/L858R) kinase activity inhibition assay (Kinase-Glo Plus luminescence); assay type: biochemical; details: 10 μM ATP, poly(Glu,Tyr) substrate
Chain of EGFR(T790M/L858R) (P00533 25-1210 T790M/L858R): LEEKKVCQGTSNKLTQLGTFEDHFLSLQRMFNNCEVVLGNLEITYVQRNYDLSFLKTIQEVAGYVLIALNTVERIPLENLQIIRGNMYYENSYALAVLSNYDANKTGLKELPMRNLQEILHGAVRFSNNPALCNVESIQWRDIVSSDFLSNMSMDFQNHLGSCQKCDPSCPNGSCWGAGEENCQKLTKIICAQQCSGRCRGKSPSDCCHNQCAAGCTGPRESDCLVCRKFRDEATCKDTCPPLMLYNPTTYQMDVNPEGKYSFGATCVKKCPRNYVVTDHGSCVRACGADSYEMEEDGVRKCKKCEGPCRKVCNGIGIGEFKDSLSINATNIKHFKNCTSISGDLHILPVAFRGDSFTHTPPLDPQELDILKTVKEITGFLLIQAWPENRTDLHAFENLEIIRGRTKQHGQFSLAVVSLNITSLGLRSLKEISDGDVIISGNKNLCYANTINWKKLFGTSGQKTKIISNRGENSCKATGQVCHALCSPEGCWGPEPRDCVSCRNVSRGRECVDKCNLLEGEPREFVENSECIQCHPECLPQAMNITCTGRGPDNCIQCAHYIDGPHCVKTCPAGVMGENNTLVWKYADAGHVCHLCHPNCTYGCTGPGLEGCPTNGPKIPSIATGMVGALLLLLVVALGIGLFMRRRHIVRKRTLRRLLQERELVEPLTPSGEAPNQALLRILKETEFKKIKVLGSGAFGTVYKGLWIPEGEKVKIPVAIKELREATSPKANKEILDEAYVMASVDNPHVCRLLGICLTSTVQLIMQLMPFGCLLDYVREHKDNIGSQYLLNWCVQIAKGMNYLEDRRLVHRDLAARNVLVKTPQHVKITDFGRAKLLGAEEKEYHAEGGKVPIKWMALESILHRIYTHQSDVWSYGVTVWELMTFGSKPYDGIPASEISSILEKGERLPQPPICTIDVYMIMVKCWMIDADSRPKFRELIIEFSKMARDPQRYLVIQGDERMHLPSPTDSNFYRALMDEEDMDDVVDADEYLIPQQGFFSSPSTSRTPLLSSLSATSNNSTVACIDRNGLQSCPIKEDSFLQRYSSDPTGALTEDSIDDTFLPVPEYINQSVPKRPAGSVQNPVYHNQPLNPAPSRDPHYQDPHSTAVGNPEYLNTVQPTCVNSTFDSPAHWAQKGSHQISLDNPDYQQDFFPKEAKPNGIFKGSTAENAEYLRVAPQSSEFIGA
Experimental: as §1

SK-Br-3 Cell line = assay: Cell proliferation assay (MTT), SK-Br-3; assay type: cell-based; details: Homo sapiens, 72 hours treatment
Experimental: (§2) A representative number of compounds were assayed against different cancer cell lines such as NCI-H-1975 or A431 using the cell proliferation assays:
(§3) Cell Proliferation Assays: • 1. 5×10^3 cells per well in 100 μl of medium were seeded in 96-well plate, here the medium contained 5% FBS • 2. 24 hours later, 100 μl fresh medium was added with various concentrations of compounds into each well, while the medium here was free of FBS • 3. After the cells were treated with compounds for 72 hours, 20 μl MTT (5 mg/ml) was added into each well, and then the assay plate was incubated at 37° C. for 4 more hours. • 4. The assay plate was centrifuged at 800 g for 10 min. The medium was aspirated, 150 μl DMSO was added into each well. The plate was gently shaked for 10 min. • 5. The absorbance at 570 nm was measured on the plate reader. • 6. IR %=(WC−WT)/WC*100%.

A431 Cell line = assay: Cell proliferation assay (MTT), A431; assay type: cell-based; details: Homo sapiens, A-431, 72 hours treatment
Experimental: as §2, §3

TA1535 = assay: Ames Assay, plate incorporation, strain TA1535; details: with S9 mixture
Experimental: (§4) A representative number of compounds were tested in Ames Assay for assess the mutagenic potential.
(§5) Preparations of culture media/plates and reagents: 0.5 mmol L-histidine-0.5 mmol/L biotin solution; 20% glucose solution; nutrient broth; KCl salt solution (1.65 M KCl+0.4 M MgCl2); 0.2 M phosphate buffer (pH 7.4); co-factors (NADP; glucose 6-phosphate) for S9 mixture; top agar medium; minimal agar medium (Vogel-Bonner medium E); bottom agar medium.
(§6) Preparation of the enriched culture: Take nutrient broth 5 mL, added it to sterile tubes with the cryopreserved strain culture TA1535 and TA1537. After inoculation in nutrient broth, the cultures were kept at 37° C. with oscillation of 100 times/min for 10 hours. The strain cultures should have about 1˜2×10^9 viable cells per milliliters.
(§7) Preparation of 10 ml S9 mixture: Co-factor mixture 9 mL by glucose 6-phosphate 42.3 mg, […] 14.2 mg, 6-phosphate dehydrogenase (3 unit/μl) 10 μl plus riboflavin (9.6 mg dissolved in 700 μL water), and then mixed with 1 ml of the induced rat S9.
(§8) Plate incorporation method: In the experiment, place 2 ml of the top agar medium containing 0.5 mmol/L histidine-0.5 mmol/L biotin into the test tubes kept in 45° C. water bath. Into a 1.5 ml sterile Eppendorf tube, it was added 0.1 ml of the bacterial strain in the enriched broth, 0.1 ml of the test compound solution and 0.5 ml of the S9 mixture, thoroughly mixed and incubated for 30 minutes at 37° C. with shaker speed at 150 rpm/min. The liquid mixture in the Eppendorf tube was added to the top agar medium. After mixing it was poured rapidly into the plates with bottom agar plate, turning the plates to allow uniform distribution. Initially placed horizontally for condensation and then placed invertly for 48 hours at 37° C. Count and record the number of revertant colonies per dish.
(§9) Experiment controls: In addition to the set of doses (3.3, 8.3, 33.3 and 66.6 μM) for the test compounds, here are the controls: blank control, sterile control, solvent control, positive mutagen control (2-aminoanthracene at 10 μg/dish).

TA1537 = assay: Ames Assay, plate incorporation, strain TA1537; details: with S9 mixture
Experimental: as §4, §5, §6, §7, §8, §9

TA1535 and TA1537 = assay: Ames Assay, overall mutagenic potential; details: TA1535 and TA1537, with S9 mixture, 3.3-66.6 μM
Experimental: as §4, §5, §6, §7
Plate incorporation method: In the experiment, place 2 ml of the top agar medium containing 0.5 mmol/L histidine-0.5 mmol/L biotin into the test tubes kept in 45° C. water bath. […]

[1] = tested on: NCI-H-1975 cell line xenograft; assay: In vivo subcutaneous NCI-H-1975 cell line xenograft model in nude mice; set-up: species or system Balb/c nude mice
Excerpt: A representative protocol for the in vivo experiment is as followed to establish the subcutaneous NCI-H-1975 cell line xenograft model in nude mice and to evaluate the in vivo therapeutic efficacy of the compounds: Animals: Male Balb/c nude mice (6˜8 weeks old) were obtained from SLAC Laboratory Animal, Shanghai, China. Animals were maintained under SPF conditions in sterile filter top cages and housed on HEPA-filtered ventilated racks. Animals received sterile rodent chow and water ad libitum. Cell line: NCI-H-1975 cell line, S.c. Xenograft Models in Athymic Mice: Cells for implantation into athymic mice were harvested and pelleted by centrifugation at 1200 r/min for 5 min. Cells were washed once and resuspended in sterile PBS buffer with 5×10^6 in 200 μl. Then cells were implanted s.c. into the right scapular region of each mouse and allowed to grow to 200-300 mm^3 before the administration of compound. Preparation of the Dose Formulation: each compound was suspensioned in 0.5% CMC-Na. Randomization: When tumor volumes approach 200-300 mm^3, the mice will be randomized into 5 groups according to the tumor volume. The day will be denoted as D1 and the treatments will be started at this day. Administered: Dose will be administered with oral gavage needle once daily for number of days. Treatment of compounds administered in 0.5% CMC—Na by p.o. gavage was initiated when tumors were 200˜300 mm^3 in volume. Observations: After inoculation, the animals will be checked daily for morbidity and mortality. At the time of routine monitoring, the animals will be checked for any effects of tumor growth and treatments on normal behavior such as mobility, body weight gain/loss (body weights will be measured twice weekly or every other day), eye/hair matting and any other abnormal effect. Death and observed clinical signs will be recorded on the basis of the numbers of animals within each subset. Tumor Size Measurements: Tumor volume was determined by measurement with electronic vernier calipers every 3 days and tumor volume was calculated as the product of its length×width^2×0.5. Effect studies: Tumor volume was expressed on indicated days as the mean tumor volume±SD. Percentage (%) inhibition values were measured for drug-treated mice compared with vehicle-treated mice and are calculated as follows: Tumor growth inhibition(TGI, %)=100−[MTV treated/MTV control]×100. Significant differences between the treated versus the control groups (p<0.05) were determined using t test. At study endpoint, after blood collection, mice were practicsed euthanasia by cervical dislocation, the tumor tissue was collected first, then abdominal cavity was cut open, liver and spleen were excised, then weight after the gallblader was removed respectively. Organ weight and Organ/body weight ratios between the treated versus the control groups were compared. Ratios was calculated as follows: Ratios=Organ weight/(body weight-tumor weight). Both organ weight and Organ/body weight ratios were also expressed as mean±SD, and significant differences between the treated versus the control groups (p<0.05) were determined using t test.
The following Table D lists compounds representative of the invention and their activity in subcutaneous NCI-H-1975 cell line xenograft model in nude mice described above. Compound 11 and Dacomitinib were dosed at 15 mg/kg by oral gavage once daily for number of days. Tumor growth inhibition (TGI, %) was calculated.

[2] = Day 3, 15 mg/kg oral gavage once daily
[3] = Day 7, 15 mg/kg oral gavage once daily

Chain of EGFR (P00533 25-1210): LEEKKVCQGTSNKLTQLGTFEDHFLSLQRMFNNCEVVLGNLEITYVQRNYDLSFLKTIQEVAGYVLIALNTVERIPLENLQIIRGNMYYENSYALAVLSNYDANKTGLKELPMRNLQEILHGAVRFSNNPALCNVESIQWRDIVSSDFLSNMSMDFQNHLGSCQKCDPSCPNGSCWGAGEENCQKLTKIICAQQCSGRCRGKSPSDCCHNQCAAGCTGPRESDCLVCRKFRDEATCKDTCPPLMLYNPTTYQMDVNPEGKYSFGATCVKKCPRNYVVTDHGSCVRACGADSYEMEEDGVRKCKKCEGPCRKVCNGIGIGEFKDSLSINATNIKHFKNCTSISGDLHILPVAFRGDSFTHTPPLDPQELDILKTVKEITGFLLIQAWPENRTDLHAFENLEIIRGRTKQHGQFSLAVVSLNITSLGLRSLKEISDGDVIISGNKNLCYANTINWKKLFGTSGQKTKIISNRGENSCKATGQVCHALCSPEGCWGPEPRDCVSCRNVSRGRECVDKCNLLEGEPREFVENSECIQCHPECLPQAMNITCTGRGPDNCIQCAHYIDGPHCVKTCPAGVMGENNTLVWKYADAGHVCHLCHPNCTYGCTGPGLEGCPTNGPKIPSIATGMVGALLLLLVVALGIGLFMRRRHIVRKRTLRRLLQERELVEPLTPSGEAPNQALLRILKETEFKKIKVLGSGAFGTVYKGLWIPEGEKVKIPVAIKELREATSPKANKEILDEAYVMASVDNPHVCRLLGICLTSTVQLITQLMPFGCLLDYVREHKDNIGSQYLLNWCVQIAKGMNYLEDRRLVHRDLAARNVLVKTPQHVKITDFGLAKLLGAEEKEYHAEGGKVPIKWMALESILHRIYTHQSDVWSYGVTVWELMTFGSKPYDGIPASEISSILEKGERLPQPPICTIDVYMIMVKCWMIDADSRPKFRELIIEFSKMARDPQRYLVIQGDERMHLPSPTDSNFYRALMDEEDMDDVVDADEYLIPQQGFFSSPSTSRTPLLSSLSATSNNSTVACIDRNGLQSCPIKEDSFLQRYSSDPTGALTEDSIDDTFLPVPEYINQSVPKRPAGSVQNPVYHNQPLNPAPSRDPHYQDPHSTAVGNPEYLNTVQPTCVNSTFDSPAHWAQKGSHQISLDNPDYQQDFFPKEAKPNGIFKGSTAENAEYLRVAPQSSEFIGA

Row | Structure (SMILES) | IC50 (EGFR) [µM] | IC50 (EGFR(T790M/L858R)) [µM] | IC50 (SK-Br-3 Cell line) [µM] | IC50 (A431 Cell line) [µM] | TA1535 Colony number (TA1535; 3.33 uM) | TA1535 Colony number (TA1535; 8.33 uM) | TA1535 Colony number (TA1535; 33.3 uM) | TA1535 Colony number (TA1535; 66.6 uM) | TA1537 Colony number (TA1537; 3.33 uM) | TA1537 Colony number (TA1537; 8.33 uM) | TA1537 Colony number (TA1537; 33.3 uM) | TA1537 Colony number (TA1537; 66.6 uM) | Ames Assay result (mutagenic potential) (TA1535 and TA1537) | Tumor growth inhibition compared with Dacomitinib ([1]; 15 mg/kg oral gavage once daily) | Tumor growth inhibition (TGI, %) [1, 2] [%] | Tumor growth inhibition (TGI, %) [1, 3] [%] | TA1535 Colony number (TA1535; 17.27 uM (10 μg/dish)) | TA1537 Colony number (TA1537; 17.27 uM (10 μg/dish))
1 | C#Cc1cccc(Nc2ncnc3cc(OCC)c(NC(=O)/C=C/CN4CCCCC4)cc23)c1 [Compound 11, (E)-N-(7-ethoxy-4-((3-ethynylphenyl)amino)quinazolin-6-yl)-4-(piperidin-1-yl)but-2-enamide] | 0.0017 | 0.022 | 0.0852 | 2.95 | 10 | 13 | 18 | 12 | 14 | 12 | 23 | 22 | negative | significant better tumor growth inhibition compared with Dacomitinib | 30.11 | 83.25 |  | 
2 | C#Cc1cccc(Nc2ncnc3cc(OC)c(NC(=O)/C=C/CN4CCCCC4)cc23)c1 [Compound 12, (E)-N-(4-((3-ethynylphenyl)amino)-7-methoxyquinazolin-6-yl)-4-(piperidin-1-yl)but-2-enamide] | < 0.01 | < 0.1 | 0.116 | 4.9 | 17 | 9 | 17 | 9 | 8 | 22 | 47 | 66 | positive |  |  |  |  | 
3 | COc1cc2ncnc(Nc3ccc(F)c(Cl)c3)c2cc1NC(=O)/C=C/CN1CCCCC1 [Dacomitinib, reference compound] |  |  | 0.225 | 19.5 |  |  |  |  |  |  |  |  |  |  | 19.86 | 75.36 |  | 
4 | Nc1ccc2cc3ccccc3cc2c1 [2-aminoanthracene, reference compound] |  |  |  |  |  |  |  |  |  |  |  |  |  |  |  |  | 205 | 260
